According to patent US11919869B2, “CD73 compounds” (Gilead Sciences, Inc., priority 2021, dated 2024):
≈ marks a conversion by molar mass, not a printed value. Structures can show the parent of a compound that is named as a salt. Where two headings read alike, the source gives them in different places.

What was measured:
[1] = Kinetic solubility at pH 1 and 7; type: physicochemical; conditions: 1.0% DMSO; for solubility kinetic at 24 h: 23 °C, kinetic from dmso stock
Description: Kinetic Solubility at pH 1 and 7
100-fold dilutions of each compound as DMSO stock solution were prepared by combining 3 μL of DMSO stock with 297 μL of the appropriate media in a Millipore solubility filter plate with 0.45 μM polycarbonate filter membrane using Hamilton Starlet liquid handling. The final DMSO Concentration is 1.0% and maximum theoretical compound concentration is […] (assuming stock concentration of 10 mM). The filter plate was sealed. Following 24-hour incubation at ambient temperature (22.2-23.6° C.), the samples were vacuum filtered, and the filtrates were collected in a 96 well polypropylene plate for analysis. The collection plate was sealed for analysis. Filtrates were injected into the nitrogen detector for quantification. The equimolar nitrogen response of the detector is calibrated using standards which span the dynamic range of the instrument from 0.08 to 4500 μg/ml nitrogen. The filtrates were quantified with respect to this calibration curve. The calculated solubility values are corrected for background nitrogen present in the DMSO, and the media used to prepare the samples

[2] = Thermodynamic solubility in FaSSIF and FeSSIF; type: physicochemical; conditions: 20 hours, ambient temperature; for FaSSIF (pH 6.5): fasted-state simulated intestinal fluid pH 6.5; for FeSSIF (pH 5.0): fed-state simulated intestinal fluid pH 5.0
Description: Thermodynamic Solubility in FASSIF and FESSIF.
The aqueous solubility of compounds over a time of 20 hours was assessed. Solubility was determined at ambient temperature in buffered fasted-state simulated intestinal fluid (FaSSIF, pH 6.5) and buffered fed-state simulated intestinal fluid (FeSSIF, pH 5.0) prepared in-house using BioRelevant Simulated Intestinal Fluid (SIF) powder. Solids were added to FaSSIF or FeSSIF in 1.5-mL Eppendorf tubes, vortexed for 1 minute, then agitated for 20 hours in an Eppendorf ThermoMixer C. To determine concentration in solution, the suspensions were centrifuged for 10 min at 14,800 rpm and supernatants were diluted to a volume of 1 mL with 1:1 v/v acetonitrile:water. All diluted supernatants were analyzed by UPLC using a Waters Acquity UPLC with a PDA UV detector.

[3] = In vivo rat pharmacokinetics; conditions: rat; Wister Han rats, 100 mg/kg suspension; Comparator C measured in plasma; read-out: Comparator C AUC 0-24 h
Description: In Vivo Rat Pharmacokinetics Experiments
In vivo Wister Han rat pharmacokinetic experiments of compound Comparator C and Example 4 were assessed as follows.
Compound Comparator C was dosed as a 100 mg/kg suspension to Wister Han rats (N=3) using the following formulation:30% captisol, 5% soluplus, 65% pH 2 water. Compound 1170997 was dosed separately as a 100 mg-eq/kg (123 mg/kg) solution to Wister Han rats (N=3) using the following formulation: 0.5% Methocel E4M Premium, 0.1% Tween-80, 99.4% Water. Samples were assessed for the presence of Comparator C.
Comparator C and Example 4. […] As is shown in Table 4, the AUC 0-24 h measured for Comparator C in plasma was higher after dosing with Example 4 than the value measured after dosing with an equivalent dose of Comparator C.

[4] = biological target: T1, alkaline phosphatase (intestinal) (Bos taurus, UniProt P19111); assay: Alkaline phosphatase stability assay; type: in vitro ADME; conditions: 2 μM substrate, 100 ng/mL purified Bovine intestinal alkaline phosphatase, Tris buffer pH 7.8; read-out: ALP half life
T1 construct: purchased MilliPore Sigma
Description: Alkaline Phosphatase Stability Assay
(§1) Alkaline phosphatase stability assays were carried out using purified Bovine intestinal alkaline phosphatase. Duplicate sets were performed with a TECAN liquid handler. Assay substrate concentrations were 2 μM. Purified Bovine intestinal alkaline phosphatase was acquired through MilliPore Sigma as a lyophilized powder. Reaction mixtures were prepared by the addition of 2 μL compound (400 μM stock solution in DMSO) into wells of a 96-well plate containing […] Tris buffer (100 mM, pH 7.8, 1 mM MgCl2 and 1 mM ZnCl2) with and without 100 ng/mL purified Bovine intestinal alkaline phosphatase. Samples were assessed at time points of 3, 30, 60, 120, 180 and 240 minutes. At each time point, 25 μL of the reaction mixtures were added into a 96-well plate containing 225 μL of quench solution (99% Acetonitrile with 1% Formic Acid and 100 nM Labetalol as internal standard). The plates containing the quench samples were then vortexed at 1100 RPM for 10 minutes and centrifuged at 4500 RPM for 20 minutes. 150 μL of the resulting supernatant was transferred into a 96-well plate containing 150 μL of water and vortexed at 1100 RPM for 3 minutes to mix.
(§2) Samples were analyzed with a Leap HTC Autosampler and a Dionex UltiMate 3000 HPLC system interfaced to a Thermo Q-Exactive mass spectrometer operating in positive ion electrospray mode. A Thermo Scientific Hypersil GOLD (1.9 μM particle size, 50×2.1 mm) HPLC column was used and mobile phase was pumped at 0.5 mL/min. Elution of analytes was achieved by a series of linear gradients of acetonitrile in water containing 0.1% (v/v) formic acid. Quantification was by analyte/internal standard peak area ratio (PAR).

[5] = Assay buffer stability (Tris buffer without alkaline phosphatase); type: physicochemical; conditions: 2 μM substrate, Tris buffer pH 7.8 without alkaline phosphatase
Description: as §1, §2

[6] = In vivo cyno pharmacokinetics; conditions: cynomolgus monkeys
Description: In Vivo Cyno Pharmacokinetics Experiments
In vivo cyno pharmacokinetic experiments of compound Comparator B and Example 1 were assessed as follows.
Compound Comparator B hydrochloride salt was dosed as a 30 mg/kg suspension to cynomolgus monkeys (N=3) using the following formulation: 0.5% Methocel E4M Premium, 0.1% Tween-80, 99.4% Water. Compound Comparator B free base was dosed separately as a 12.5 mg/kg (50 mg-fixed) suspension to cynomolgus monkeys (N=3) using the following formulation: 0.5% Methocel E4M Premium, 0.1% Tween-80, 99.4% Water. Compound Example 1 was dosed separately as a 12.5 mg/kg (50 mg-fixed) suspension to cynomolgus monkeys (N=3) using the following formulation: 0.5% Methocel E4M Premium, 0.1% Tween-80, 99.4% Water. […] As is shown in Table 4, the AUC 0-24 h measured for Comparator B in plasma was higher after dosing with Example 1 than the value measured after dosing with an equivalent dose of Comparator B.

[7] = pH 1, 24-hour incubation at ambient temperature
[8] = pH 7, 24-hour incubation at ambient temperature
[9] = aqueous buffer, pH 7, 24-hour incubation at ambient temperature, read-out: Kinetic Solubility pH 7
[10] = simulated gastric fluid, pH 1, 24-hour incubation at ambient temperature, read-out: Kinetic Solubility pH 1

T1 sequence (P19111 20-506 limits assumed): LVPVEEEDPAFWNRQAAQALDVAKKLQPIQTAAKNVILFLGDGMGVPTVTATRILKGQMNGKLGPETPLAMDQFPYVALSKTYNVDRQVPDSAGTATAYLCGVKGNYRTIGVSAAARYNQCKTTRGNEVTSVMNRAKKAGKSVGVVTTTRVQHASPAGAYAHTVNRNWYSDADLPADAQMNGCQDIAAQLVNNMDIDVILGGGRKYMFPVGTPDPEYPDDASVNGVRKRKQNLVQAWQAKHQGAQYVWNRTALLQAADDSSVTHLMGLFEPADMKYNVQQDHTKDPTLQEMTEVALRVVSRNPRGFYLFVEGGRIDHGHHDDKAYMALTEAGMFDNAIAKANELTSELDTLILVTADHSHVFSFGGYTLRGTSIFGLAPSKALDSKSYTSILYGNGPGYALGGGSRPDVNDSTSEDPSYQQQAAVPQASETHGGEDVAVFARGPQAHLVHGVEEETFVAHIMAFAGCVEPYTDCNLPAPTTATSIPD

Row | Compound | FaSSIF (pH 6.5) [2] [ug/mL] | FeSSIF (pH 5.0) [2] [ug/mL] | solubility kinetic at 24 h [1, 9] [µM] | solubility kinetic at 24 h [1, 10] [µM] | half-life at 2 µM [4] [min] | also measured
1 | 5-(8-((1S,2S)-2-(1-(2,2,2-trifluoroethyl)-1H-indazol-5-yl)cyclopropyl)imidazo[1,2-b]pyridazin-6-yl)pyrimidine-2,4(1H,3H)-dione [reference compound] | 0.7 | 12.4 |  |  |  | Kinetic Solubility pH 1 [1, 7]: 72 uM; Kinetic Solubility pH 7 [1, 8]: 10 uM
2 | O=c1[nH]cc(-c2cc([C@H]3C[C@@H]3c3ccc4cnn(CC(F)(F)F)c4c3)c3ncc(F)n3n2)c(=O)[nH]1 [Comparator C HCl salt, reference compound] |  |  |  |  |  | AUC(0-t) [3]: 11.2 µM·h
3 | O=c1[nH]c(=O)n(COP(=O)(O)O)cc1-c1cc([C@H]2C[C@@H]2c2ccc3cnn(CC(F)(F)F)c3n2)c2ncc(F)n2n1 [Example 5, (5-(3-fluoro-8-((1S,2S)-2-(1-(2,2,2-trifluoroethyl)-1H-pyrazolo[3,4-b]pyridin-6-yl)cyclopropyl)imidazo[1,2-b]pyridazin-6-yl)-2,4-dioxo-3,4-dihydropyrimidin-1(2H)-yl)methyl dihydrogen phosphate] |  |  | 86 | 79 | 14 | half-life at 2 µM [5]: > 1580 min
4 | O=c1[nH]c(=O)n(COP(=O)(O)O)cc1-c1cc([C@H]2C[C@@H]2c2ccc3cnn(CC(F)(F)F)c3c2)c2nccn2n1 [Example 2, (2,4-dioxo-5-(8-((1S,2S)-2-(1-(2,2,2-trifluoroethyl)-1H-indazol-6-yl)cyclopropyl)imidazo[1,2-b]pyridazin-6-yl)-3,4-dihydropyrimidin-1(2H)-yl)methyl dihydrogen phosphate] |  |  | 89 | 3 | 11 | 
5 | CC1(C)CN(c2cc(-c3c[nH]c(=O)[nH]c3=O)nn3ccnc23)CC1(F)F [B, 5-[8-(3,3-difluoro-4,4-dimethyl-pyrrolidin-1-yl)imidazo[1,2-b]pyridazin-6-yl]-1H-pyrimidine-2,4-dione, reference compound] | 12 | 33 | 5 (≈ 1.81 µg/mL) | 95 (≈ 34.4 µg/mL) |  | 
6 | O=c1c(-c2cc([C@H]3C[C@@H]3c3ccc4cnn(CC(F)(F)F)c4c3)n3nccc3n2)cn(COP(=O)(O)O)c(=O)n1COP(=O)(O)O [Example 7, (2,4-dioxo-5-(7-((1S,2S)-2-(1-(2,2,2-trifluoroethyl)-1H-indazol-6-yl)cyclopropyl)pyrazolo[1,5-a]pyrimidin-5-yl)pyrimidine-1,3(2H,4H)-diyl)bis(methylene) bis(dihydrogen phosphate)] |  |  | > 100 | 89 |  | 
7 | CC1(C)CN(c2cc(-c3c[nH]c(=O)[nH]c3=O)nn3ccnc23)CC1(F)F [Comparator B HCl salt, 5-[8-(3,3-difluoro-4,4-dimethyl-pyrrolidin-1-yl)imidazo[1,2-b]pyridazin-6-yl]-1H-pyrimidine-2,4-dione, reference compound] |  |  |  |  |  | AUC(0-t) ([6]; cynomolgus monkey, 120 mg fixed (30 mg/kg) suspension, Comparator B measured in plasma, read-out: Comparator B AUC 0-24 h): 33.2 µM·h
8 | O=c1c(-c2cc([C@H]3C[C@@H]3c3ccc4cnn(CC(F)(F)F)c4c3)c3ncc(F)n3n2)cn(COP(=O)(O)O)c(=O)n1COP(=O)(O)O [Example 3, (5-(3-fluoro-8-((1S,2S)-2-(1-(2,2,2-trifluoroethyl)-1H-indazol-6-yl)cyclopropyl)imidazo[1,2-b]pyridazin-6-yl)-2,4-dioxopyrimidine-1,3(2H,4H)-diyl)bis(methylene) bis(dihydrogen phosphate)] |  |  | > 100 | 91 |  | 
9 | 5-(3-fluoro-8-((1S,2S)-2-(1-(2,2,2-trifluoroethyl)-1H-pyrazolo[3,4-b]pyridin-6-yl)cyclopropyl)imidazo[1,2-b]pyridazin-6-yl)pyrimidine-2,4(1H,3H)-dione [reference compound] |  |  |  |  |  | Kinetic Solubility pH 1 [1, 7]: 9 uM; Kinetic Solubility pH 7 [1, 8]: 6 uM

Continued, in another order:

Row | FaSSIF (pH 6.5) [2] [ug/mL] | FeSSIF (pH 5.0) [2] [ug/mL] | solubility kinetic at 24 h [1, 9] [µM] | solubility kinetic at 24 h [1, 10] [µM] | half-life at 2 µM [4] [min] | Compound | also measured
10 |  |  | 8 (≈ 3.89 µg/mL) | 94 (≈ 45.7 µg/mL) |  | O=c1[nH]cc(-c2cc([C@H]3C[C@@H]3c3ccc4cnn(CC(F)(F)F)c4n3)c3ncc(F)n3n2)c(=O)[nH]1 [E, reference compound] | 
11 | >1000 | >1000 | > 100 | > 100 | 10 | CC1(C)CN(c2cc(-c3cn(COP(=O)(O)O)c(=O)[nH]c3=O)nn3ccnc23)CC1(F)F [Example 1, (5-(8-(3,3-difluoro-4,4-dimethylpyrrolidin-1-yl)imidazo[1,2-b]pyridazin-6-yl)-2,4-dioxo-3,4-dihydropyrimidin-1(2H)-yl)methyl dihydrogen phosphate] | half-life at 2 µM [5]: > 1580 min; AUC 0-24 h measured for Comparator B in plasma, compared with dosing an equivalent dose of Comparator B ([6]; 12.5 mg/kg (50 mg-fixed) suspension): higher
12 |  |  | 85 | 10 | 8 | O=c1[nH]c(=O)n(COP(=O)(O)O)cc1-c1cc([C@H]2C[C@@H]2c2ccc3cnn(CC(F)(F)F)c3c2)n2nccc2n1 [Example 6, (2,4-dioxo-5-(7-((1S,2S)-2-(1-(2,2,2-trifluoroethyl)-1H-indazol-6-yl)cyclopropyl)pyrazolo[1,5-a]pyrimidin-5-yl)-3,4-dihydropyrimidin-1(2H)-yl)methyl dihydrogen phosphate] | half-life at 2 µM [5]: > 1580 min
13 | 0.5 | 11.1 |  |  |  | 5-(7-((1S,2S)-2-(1-(2,2,2-trifluoroethyl)-1H-indazol-6-yl)cyclopropyl)pyrazolo[1,5-a]pyrimidin-5-yl)pyrimidine-2,4(1H,3H)-dione [reference compound] | Kinetic Solubility pH 1 [1, 7]: 65 uM; Kinetic Solubility pH 7 [1, 8]: 7 uM
